Data taken from ChEMBL document CHEMBL5385866, “Switch type I to type II TRK inhibitors for combating clinical resistance induced by xDFG mutation for cancer therapy” (Eur J Med Chem, 2023).
pIC50: −log10 of the molar value.

What was measured:
[1] = target: High affinity nerve growth factor receptor (Homo sapiens, UniProt P04629); assay: Inhibition of TRKA (unknown origin) using […] peptide as substrate incubated for 1 hr in presence of ATP by FRET based Z'-lyte assay
[2] = target: High affinity nerve growth factor receptor (Homo sapiens, UniProt P04629, G667C); assay: Inhibition of TRKA G667C mutant (unknown origin) using […] peptide as substrate incubated for 1 hr in presence of ATP by FRET based Z'-lyte assay
[3] = target: BDNF/NT-3 growth factors receptor (Homo sapiens, UniProt Q16620); assay: Inhibition of TRKB (unknown origin) using […] peptide as substrate incubated for 1 hr in presence of ATP by FRET based Z'-lyte assay
[4] = target: NT-3 growth factor receptor (Homo sapiens, UniProt Q16288); assay: Inhibition of TRKC (unknown origin) using […] peptide as substrate incubated for 1 hr in presence of ATP by FRET based Z'-lyte assay
BaF3 [5] = assay: cells; conditions: Mus musculus, BaF3, 72 h
Description: Antiproliferative activity against mouse BaF3 cells harbouring ETV6-TRKC assessed as inhibition of cell growth incubated for 72 hrs by CCK8 assay

BaF3 [6] = assay: cells; conditions: Mus musculus, BaF3, 72 h; remark: listed apart in the source
BaF3 [7] = assay: cells; conditions: Mus musculus, BaF3, 72 h; remark: listed apart in the source
Description: Antiproliferative activity against mouse BaF3 cells harbouring CD74-TRKA assessed as inhibition of cell growth incubated for 72 hrs by CCK8 assay

BaF3 [8] = assay: cells; conditions: Mus musculus, BaF3, 72 h; remark: listed apart in the source
Description: Antiproliferative activity against mouse BaF3 cells harbouring ETV6-TRKB assessed as inhibition of cell growth incubated for 72 hrs by CCK8 assay

[9] = target: Vascular endothelial growth factor receptor 2 (Homo sapiens, UniProt P35968); assay: Inhibition of VEGFR2 (unknown origin)
BaF3 [10] = assay: Induction of apoptosis in mouse BaF3 cells harboring CD74-TRKA assessed as viable cells at 100 nM incubated 48 hrs by Annexin V-FITC/7-AAD staining based flow cytometric analysis (reference value: 89.30%); type: functional; conditions: read-out: Activity
[11] = target: T1, Receptor-type tyrosine-protein kinase FLT3 (Homo sapiens, UniProt P36888); assay: Inhibition of FLT3 (unknown origin)
T1 sequence (P36888 whole entry): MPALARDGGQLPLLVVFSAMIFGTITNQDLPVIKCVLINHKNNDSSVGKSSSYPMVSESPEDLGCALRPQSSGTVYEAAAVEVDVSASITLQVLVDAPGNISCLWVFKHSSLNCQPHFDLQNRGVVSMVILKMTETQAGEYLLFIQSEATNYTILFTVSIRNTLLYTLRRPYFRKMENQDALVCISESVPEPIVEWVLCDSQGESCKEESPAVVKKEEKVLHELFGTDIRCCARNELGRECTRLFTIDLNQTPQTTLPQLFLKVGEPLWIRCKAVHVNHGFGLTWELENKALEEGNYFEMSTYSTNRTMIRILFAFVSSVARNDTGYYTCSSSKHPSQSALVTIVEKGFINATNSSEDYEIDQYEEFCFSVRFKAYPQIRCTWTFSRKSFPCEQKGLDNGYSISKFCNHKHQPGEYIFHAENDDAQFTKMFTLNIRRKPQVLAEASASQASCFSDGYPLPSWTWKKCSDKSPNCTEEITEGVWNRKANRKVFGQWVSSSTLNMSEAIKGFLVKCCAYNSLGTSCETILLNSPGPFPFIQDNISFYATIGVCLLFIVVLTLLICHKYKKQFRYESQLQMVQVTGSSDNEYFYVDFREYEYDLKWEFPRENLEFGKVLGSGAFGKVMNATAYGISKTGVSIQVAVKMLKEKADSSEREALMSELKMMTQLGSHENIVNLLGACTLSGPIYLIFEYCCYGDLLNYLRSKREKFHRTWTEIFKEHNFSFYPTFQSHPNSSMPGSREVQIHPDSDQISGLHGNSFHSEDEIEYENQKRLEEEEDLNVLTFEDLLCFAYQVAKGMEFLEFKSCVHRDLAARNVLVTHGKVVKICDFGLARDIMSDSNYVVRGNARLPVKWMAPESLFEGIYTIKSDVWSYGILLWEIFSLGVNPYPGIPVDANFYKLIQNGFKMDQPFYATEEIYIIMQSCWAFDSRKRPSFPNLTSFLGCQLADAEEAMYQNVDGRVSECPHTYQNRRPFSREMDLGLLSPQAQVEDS

BaF3 [12] = assay: Induction of apoptosis in mouse BaF3 cells harboring CD74-TRKA assessed as viable cells at 4 nM incubated 48 hrs by Annexin V-FITC/7-AAD staining based flow cytometric analysis (reference value: 89.30%); type: functional; conditions: read-out: Activity
BaF3 [13] = assay: Induction of apoptosis in mouse BaF3 cells harboring CD74-TRKA G667C mutant assessed as viable cells at 2 nM incubated 48 hrs by Annexin V-FITC/7-AAD staining based flow cytometric analysis (reference value: 89.60%); type: functional; conditions: read-out: Activity
[14] = target: Proto-oncogene tyrosine-protein kinase receptor Ret (Homo sapiens, UniProt P07949); assay: Inhibition of RET (unknown origin)
BaF3 [15] = assay: Induction of apoptosis in mouse BaF3 cells harboring CD74-TRKA G667C mutant assessed as viable cells at 0.4 nM incubated 48 hrs by Annexin V-FITC/7-AAD staining based flow cytometric analysis (reference value: 89.60%); type: functional; conditions: read-out: Activity
BaF3 [16] = assay: Induction of apoptosis in mouse BaF3 cells harboring CD74-TRKA G667C mutant assessed as viable cells at 10 nM incubated 48 hrs by Annexin V-FITC/7-AAD staining based flow cytometric analysis (reference value: 89.60%); type: functional; conditions: read-out: Activity
BaF3 [17] = assay: Induction of apoptosis in mouse BaF3 cells harboring CD74-TRKA assessed as viable cells at 500 nM incubated 48 hrs by Annexin V-FITC/7-AAD staining based flow cytometric analysis (reference value: 89.30%); type: functional; conditions: read-out: Activity
BaF3 [18] = assay: Induction of apoptosis in mouse BaF3 cells harboring CD74-TRKA G667C mutant assessed as viable cells at 50 nM incubated 48 hrs by Annexin V-FITC/7-AAD staining based flow cytometric analysis (reference value: 89.60%); type: functional; conditions: read-out: Activity
BaF3 [19] = assay: Induction of apoptosis in mouse BaF3 cells harboring CD74-TRKA assessed as viable cells at 20 nM incubated 48 hrs by Annexin V-FITC/7-AAD staining based flow cytometric analysis (reference value: 89.30%); type: functional; conditions: read-out: Activity
BaF3 [20] = assay: cells; conditions: Mus musculus, BaF3, 72 h; remark: listed apart in the source
Description: Antiproliferative activity against mouse BaF3 cells harbouring CD74-TRKA G595R mutant assessed as inhibition of cell growth incubated for 72 hrs by CCK8 assay

BaF3 [21] = assay: cells; conditions: Mus musculus, BaF3, 72 h; remark: listed apart in the source
Description: Antiproliferative activity against mouse BaF3 cells assessed as inhibition of cell growth incubated for 72 hrs by CCK8 assay

BaF3 [22] = assay: cells; conditions: Mus musculus, BaF3, 72 h; remark: listed apart in the source
Description: Antiproliferative activity against mouse BaF3 cells harbouring CD74-TRKA G623R mutant assessed as inhibition of cell growth incubated for 72 hrs by CCK8 assay

NT-3 growth factor receptor, sequence (Q16288 whole entry): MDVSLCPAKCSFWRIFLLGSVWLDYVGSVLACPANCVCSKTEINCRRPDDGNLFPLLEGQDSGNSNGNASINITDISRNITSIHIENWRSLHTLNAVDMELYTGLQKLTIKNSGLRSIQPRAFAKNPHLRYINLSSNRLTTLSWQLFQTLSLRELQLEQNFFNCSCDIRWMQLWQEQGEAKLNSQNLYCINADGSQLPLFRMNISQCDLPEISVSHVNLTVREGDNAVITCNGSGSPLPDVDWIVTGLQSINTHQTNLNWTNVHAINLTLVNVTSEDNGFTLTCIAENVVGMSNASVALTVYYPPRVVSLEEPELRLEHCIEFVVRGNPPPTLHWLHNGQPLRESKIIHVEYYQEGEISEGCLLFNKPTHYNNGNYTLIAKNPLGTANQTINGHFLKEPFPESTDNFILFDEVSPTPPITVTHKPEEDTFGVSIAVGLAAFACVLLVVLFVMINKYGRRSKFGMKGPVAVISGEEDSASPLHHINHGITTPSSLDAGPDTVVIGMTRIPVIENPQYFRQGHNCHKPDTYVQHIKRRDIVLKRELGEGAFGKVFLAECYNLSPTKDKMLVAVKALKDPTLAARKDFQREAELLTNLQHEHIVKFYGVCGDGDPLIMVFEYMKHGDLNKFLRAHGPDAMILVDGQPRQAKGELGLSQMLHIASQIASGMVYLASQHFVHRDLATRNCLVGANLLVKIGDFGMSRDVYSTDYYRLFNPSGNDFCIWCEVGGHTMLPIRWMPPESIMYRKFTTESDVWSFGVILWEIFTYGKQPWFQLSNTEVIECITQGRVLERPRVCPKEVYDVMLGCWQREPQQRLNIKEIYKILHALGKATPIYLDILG
High affinity nerve growth factor receptor (Homo sapiens, UniProt P04629), sequence (P04629 whole entry): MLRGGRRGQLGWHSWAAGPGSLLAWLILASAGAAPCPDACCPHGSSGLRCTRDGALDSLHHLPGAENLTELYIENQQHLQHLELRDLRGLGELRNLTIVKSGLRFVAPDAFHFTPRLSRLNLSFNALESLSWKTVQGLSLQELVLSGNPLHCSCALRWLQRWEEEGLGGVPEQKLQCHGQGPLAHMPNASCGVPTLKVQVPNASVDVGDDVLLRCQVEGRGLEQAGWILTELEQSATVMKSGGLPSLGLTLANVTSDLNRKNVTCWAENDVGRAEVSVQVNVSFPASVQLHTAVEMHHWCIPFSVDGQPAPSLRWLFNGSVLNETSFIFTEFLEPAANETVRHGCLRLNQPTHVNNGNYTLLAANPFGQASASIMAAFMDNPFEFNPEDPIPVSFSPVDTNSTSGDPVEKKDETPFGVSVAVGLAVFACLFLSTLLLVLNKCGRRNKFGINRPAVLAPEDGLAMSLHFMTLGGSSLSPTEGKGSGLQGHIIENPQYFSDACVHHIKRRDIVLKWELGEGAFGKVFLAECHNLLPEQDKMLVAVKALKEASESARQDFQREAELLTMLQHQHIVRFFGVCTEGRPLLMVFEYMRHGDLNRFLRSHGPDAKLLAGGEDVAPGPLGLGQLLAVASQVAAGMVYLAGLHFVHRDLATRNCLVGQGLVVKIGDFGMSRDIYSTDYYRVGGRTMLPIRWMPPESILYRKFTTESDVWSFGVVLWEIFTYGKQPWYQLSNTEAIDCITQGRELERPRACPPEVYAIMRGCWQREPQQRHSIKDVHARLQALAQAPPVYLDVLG
BDNF/NT-3 growth factors receptor, sequence (Q16620 whole entry): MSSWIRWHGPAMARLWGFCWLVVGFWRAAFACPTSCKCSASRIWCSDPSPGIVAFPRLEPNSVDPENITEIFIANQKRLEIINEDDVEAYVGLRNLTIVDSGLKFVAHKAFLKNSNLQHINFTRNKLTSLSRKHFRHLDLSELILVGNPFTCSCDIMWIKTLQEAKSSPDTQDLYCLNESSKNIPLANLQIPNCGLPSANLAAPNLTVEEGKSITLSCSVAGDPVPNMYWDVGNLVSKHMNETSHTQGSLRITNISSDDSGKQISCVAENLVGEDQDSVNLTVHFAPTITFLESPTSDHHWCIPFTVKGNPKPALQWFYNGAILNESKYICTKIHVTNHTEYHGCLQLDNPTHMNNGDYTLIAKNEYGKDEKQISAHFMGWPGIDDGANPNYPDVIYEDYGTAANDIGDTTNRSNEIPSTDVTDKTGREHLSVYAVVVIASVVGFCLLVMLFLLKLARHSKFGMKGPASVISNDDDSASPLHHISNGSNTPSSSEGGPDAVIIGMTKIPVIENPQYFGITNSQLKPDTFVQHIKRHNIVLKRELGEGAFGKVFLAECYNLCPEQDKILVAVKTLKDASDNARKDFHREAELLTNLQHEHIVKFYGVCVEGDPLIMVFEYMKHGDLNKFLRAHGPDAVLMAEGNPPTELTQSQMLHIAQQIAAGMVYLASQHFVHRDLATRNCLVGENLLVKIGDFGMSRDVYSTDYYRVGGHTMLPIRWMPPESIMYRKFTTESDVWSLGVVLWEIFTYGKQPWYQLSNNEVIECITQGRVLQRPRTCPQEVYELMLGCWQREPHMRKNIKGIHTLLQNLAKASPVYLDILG
High affinity nerve growth factor receptor (Homo sapiens, UniProt P04629, G667C), sequence (P04629 33-796 G667C limits assumed): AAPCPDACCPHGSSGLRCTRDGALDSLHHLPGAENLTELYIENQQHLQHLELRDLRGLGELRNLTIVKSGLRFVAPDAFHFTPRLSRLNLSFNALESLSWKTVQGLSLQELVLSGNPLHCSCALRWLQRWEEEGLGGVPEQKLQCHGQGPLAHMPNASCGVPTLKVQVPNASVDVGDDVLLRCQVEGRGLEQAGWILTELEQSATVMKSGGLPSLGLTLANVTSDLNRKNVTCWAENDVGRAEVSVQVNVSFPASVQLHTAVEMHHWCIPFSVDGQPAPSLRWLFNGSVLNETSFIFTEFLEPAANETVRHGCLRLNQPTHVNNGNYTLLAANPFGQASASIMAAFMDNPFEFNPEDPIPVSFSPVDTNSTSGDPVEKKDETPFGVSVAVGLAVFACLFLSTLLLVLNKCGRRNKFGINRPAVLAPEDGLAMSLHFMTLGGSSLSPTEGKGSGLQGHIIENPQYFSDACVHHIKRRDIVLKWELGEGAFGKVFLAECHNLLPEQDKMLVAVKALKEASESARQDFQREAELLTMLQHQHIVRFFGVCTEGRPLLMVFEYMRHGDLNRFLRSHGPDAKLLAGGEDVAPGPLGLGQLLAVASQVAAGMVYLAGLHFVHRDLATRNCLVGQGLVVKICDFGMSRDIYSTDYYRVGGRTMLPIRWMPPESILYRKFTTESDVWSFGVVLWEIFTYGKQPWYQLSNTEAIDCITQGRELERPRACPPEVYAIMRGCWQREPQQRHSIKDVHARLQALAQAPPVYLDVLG
Vascular endothelial growth factor receptor 2, sequence (P35968 whole entry): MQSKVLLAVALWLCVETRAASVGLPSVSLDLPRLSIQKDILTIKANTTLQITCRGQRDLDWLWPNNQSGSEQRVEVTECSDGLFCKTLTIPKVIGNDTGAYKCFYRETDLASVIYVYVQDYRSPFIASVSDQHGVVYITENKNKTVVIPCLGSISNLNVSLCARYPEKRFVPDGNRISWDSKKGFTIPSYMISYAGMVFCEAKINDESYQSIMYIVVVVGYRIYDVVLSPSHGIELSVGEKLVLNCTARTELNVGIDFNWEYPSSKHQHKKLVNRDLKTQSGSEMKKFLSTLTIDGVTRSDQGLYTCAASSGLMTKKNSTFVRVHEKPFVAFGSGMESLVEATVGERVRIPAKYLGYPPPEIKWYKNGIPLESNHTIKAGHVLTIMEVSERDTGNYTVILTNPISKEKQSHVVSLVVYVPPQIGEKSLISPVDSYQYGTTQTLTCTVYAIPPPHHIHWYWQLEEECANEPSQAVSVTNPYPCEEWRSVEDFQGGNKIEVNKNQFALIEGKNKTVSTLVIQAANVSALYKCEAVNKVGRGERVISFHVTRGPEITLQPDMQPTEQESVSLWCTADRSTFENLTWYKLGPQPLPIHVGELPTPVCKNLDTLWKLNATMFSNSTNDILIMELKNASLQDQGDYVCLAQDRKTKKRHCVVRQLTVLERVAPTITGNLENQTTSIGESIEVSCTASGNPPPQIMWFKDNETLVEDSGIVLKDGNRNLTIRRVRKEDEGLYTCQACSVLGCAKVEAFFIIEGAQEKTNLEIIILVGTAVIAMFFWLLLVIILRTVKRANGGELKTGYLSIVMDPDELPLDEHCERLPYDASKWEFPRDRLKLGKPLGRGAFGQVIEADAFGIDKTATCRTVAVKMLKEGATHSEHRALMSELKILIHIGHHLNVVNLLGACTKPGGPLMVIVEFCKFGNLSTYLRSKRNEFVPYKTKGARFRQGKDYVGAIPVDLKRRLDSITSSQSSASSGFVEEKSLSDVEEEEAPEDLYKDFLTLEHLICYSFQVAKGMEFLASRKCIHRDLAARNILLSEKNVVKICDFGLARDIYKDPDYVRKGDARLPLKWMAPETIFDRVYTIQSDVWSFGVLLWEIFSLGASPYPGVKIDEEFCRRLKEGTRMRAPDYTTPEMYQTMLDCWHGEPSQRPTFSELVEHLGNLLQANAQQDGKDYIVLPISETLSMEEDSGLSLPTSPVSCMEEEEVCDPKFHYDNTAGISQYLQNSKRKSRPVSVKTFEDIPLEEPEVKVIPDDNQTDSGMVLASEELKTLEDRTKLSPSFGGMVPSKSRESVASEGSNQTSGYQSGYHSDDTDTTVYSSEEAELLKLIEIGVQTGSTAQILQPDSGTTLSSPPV

Row | pIC50 [1] | pIC50 [2] | pIC50 [3] | pIC50 [4] | pIC50 (BaF3 [5]) | pIC50 (BaF3 [6]) | pIC50 (BaF3 [7]) | pIC50 (BaF3 [8]) | Structure (SMILES) | also measured
1 | 7.45 | 7.01 | 7.29 | 7.40 | 6.85 | 7.31 | 6.58 | 6.67 | CN1CCN(Cc2cc(NC(=O)[C@H]3CCN(c4ccc5ncc(-c6ccccn6)n5n4)C3)cc(C(F)(F)F)c2)CC1 | 
2 | 8.24 | 7.78 | 8.29 | 8.09 | 7.58 | 8.03 | 7.21 | 7.29 | CN1CCN(Cc2cc(NC(=O)[C@@H]3CCN(c4ccc5ncc(-c6ccccn6)n5n4)C3)cc(C(F)(F)F)c2)CC1 | 
3 | 7.88 | 7.60 | 8.23 | 8.00 | 7.80 | 8.74 | 7.54 | 7.60 | Cc1cn(-c2cc(NC(=O)[C@@H]3CCN(c4ccc5ncc(-c6ccccn6)n5n4)C3)cc(C(F)(F)F)c2)cn1 | 
4 | 8.48 | 8.03 |  | 8.37 |  |  |  |  | CN1CCN(Cc2ccc(NC(=O)[C@@H]3CCN(c4ccc5ncc(-c6ccccn6)n5n4)C3)cc2C(F)(F)F)CC1 | pIC50 [9]: 7.15; viability at 0.1 µM (BaF3 [10]): 78.1%; pIC50 [11]: 8.89; viability at 0.004 µM (BaF3 [12]): 59.9%; viability at 0.002 µM (BaF3 [13]): 89.8%; pIC50 [14]: 8.00; viability at 0.0004 µM (BaF3 [15]): 89.1%; viability at 0.01 µM (BaF3 [16]): 87.6%; viability at 0.5 µM (BaF3 [17]): 60.8%; viability at 0.05 µM (BaF3 [18]): 43%; viability at 0.02 µM (BaF3 [19]): 87.8%
5 |  |  | 7.95 | 8.10 |  |  |  |  | CN1CCN(Cc2ccc(NC(=O)[C@@H]3CCN(c4ccc5ncc(-c6cccnc6)n5n4)C3)cc2C(F)(F)F)CC1 | 

The next lines start with the compound.

Row | Structure (SMILES) | pIC50 [1] | pIC50 [2] | pIC50 [3] | pIC50 [4] | pIC50 (BaF3 [5]) | pIC50 (BaF3 [6]) | pIC50 (BaF3 [7]) | pIC50 (BaF3 [8]) | also measured
6 | CN1CCN(Cc2ccc(NC(=O)[C@@H]3CCN(c4ccc5ncc(-c6ccc(N)nc6)n5n4)C3)cc2C(F)(F)F)CC1 | 8.22 | 7.78 | 8.02 |  |  |  |  |  | 
7 | CN1CCN(Cc2ccc(NC(=O)[C@@H]3CCN(c4ccc5ncc(-c6cnn(C7CCOCC7)c6)n5n4)C3)cc2C(F)(F)F)CC1 | 7.88 | 7.45 | 7.57 |  |  |  |  |  | 
8 | CN1CCN(Cc2ccc(NC(=O)[C@@H]3CCN(c4ccc5ncc(-c6cn[nH]c6)n5n4)C3)cc2C(F)(F)F)CC1 | 8.24 | 7.47 | 7.86 | 8.11 | 6.71 | 7.56 | 6.53 | 6.28 | 
9 | CN1CCN(Cc2ccc(NC(=O)[C@@H]3CCN(c4ccc5nccn5n4)C3)cc2C(F)(F)F)CC1 | 6.61 | 6.03 | < 6.00 |  |  |  |  |  | 
10 | CN1CCN(Cc2ccc(NC(=O)[C@@H]3CCN(c4ccc5ncc(-c6cnn(CCO)c6)n5n4)C3)cc2C(F)(F)F)CC1 | 8.06 | 7.28 | 7.67 |  |  |  |  |  | 
11 | C[C@@H]1CCc2ncc(F)cc2[C@H]2CCCN2c2ccn3ncc(c3n2)C(=O)N1 [SELITRECTINIB] |  |  |  |  | 8.92 |  | 8.77 | 8.28 | 
12 | O=C(Nc1cnn2ccc(N3CCC[C@@H]3c3cc(F)ccc3F)nc12)N1CC[C@H](O)C1 [LAROTRECTINIB] |  |  |  |  | 7.81 | 6.55 | 8.03 | 7.53 | pIC50 (BaF3 [20]): < 6.00; pIC50 (BaF3 [21]): < 5.70; pIC50 (BaF3 [22]): < 6.00
13 | O=C(Nc1ccc(Cl)c(C(F)(F)F)c1)N[C@@H]1CCN(c2ccc3ncc(-c4ccccn4)n3n2)C1 | 7.34 | 7.82 | 7.09 | 7.77 | 6.65 | 8.36 | 6.16 | 6.29 | 
14 | Cc1conc1NC(=O)N[C@@H]1CCN(c2ccc3ncc(-c4ccccn4)n3n2)C1 | 7.16 | 6.62 |  | 7.43 |  |  |  |  | 
